Source: US7253258B2, “Proline rich acidic protein and uses thereof” (National University of Singapore, priority 2003, dated 2007)
Several values for one entry are separate records, joined by “and”; a condition that tells them apart may be missing. Identical values can stand only once.

Tests used:
[1] = tested on: PRAP expression in HT29 cells; test: Real time RT-PCR of PRAP expression in HT29 cells treated with TSA, DAC or both; format: cell-based, human; details: HT29, 72 h, TSA (300 ng), DAC (1 μm); for PRAPcp-GAPDHcp: crossing point of PRAP normalized by GAPDH: untreated 12.63
Procedure: (§1) Sigma), trichostatin A (TSA, 300 nM; Sigma) or a combination of both drugs for 72 hours. For the combined treatment, cells were treated with 1 μM DAC for 24 h followed by the addition of 300 nM TSA for another 48 h. Total RNA was extracted using the […] (Qiagen). The experiment was performed in duplicates and the average result calculated. Primers for real-time PCR were designed using the LightCycler Probe Design Software, version 1.0 (Roche, France). […] Real-time PCR was performed on the LightCycler (Roche, France) using the LightCycler-RNA amplification Kit SYBR Green I (Roche, France). The specificity of the amplification was assessed by electrophoretic separation of the amplified products and melting curve analysis. […] The efficiencies of both amplifications were calculated according to the slope of the standard curves. Relative PRAP expression was quantified after normalisation with GAPDH.

[2] = tested on: PRAP expression in HCT116 cells; test: Real time RT-PCR of PRAP expression in HCT116 cells treated with TSA, DAC or both; format: cell-based, human; details: HCT116, 72 h, TSA (300 ng), DAC (1 μm); for PRAPcp-GAPDHcp: crossing point of PRAP normalized by GAPDH: untreated 13.97
Procedure: as §1

[3] = tested on: PRAP gene expression in HT29 cells; test: Northern blot of PRAP gene expression in butyrate-treated HT29 cells; format: cell-based, human; details: HT29, 5 mM butyrate
Procedure: The HT29, HCT116, HepG2 and HeLa cell lines were purchased from American Type Culture Collection (Manassas, Va.). HT29 and HCT116 cells were cultured in McCoy's 5A (Sigma Chemical Co., St. Louis, Mo.), HepG2 in DMEM and HeLa in RPMI, all supplemented with 10% fetal bovine serum (Life Technologies, Inc., Gaithersburg, Md.), at 37° C. in a 5% CO2 humidified atmosphere. Cells were treated with 5 mM sodium butyrate (final concentration in media; Life Technologies, Inc) or vehicle. Total RNA was prepared from the cells at the respective time points from three separate flasks.
In a separate experiment, total RNA from tissues and cell lines was prepared using the guanidinium thiocyanate method as previously described (MacDonald et al., 1987). 15 μg of RNA was separated by formaldehyde/agarose gel electrophoresis, transferred to nylon membrane (Qiabrane, Qiagen, Hilden, Germany), cross-linked (Stratalinker, Stratagene, La Jolla, Calif.), and hybridised to cDNA probes, as previously described (Wang et al., 1999). […] Relative mRNA levels were quantified by Typhoon phospho-imager (Amersham Bioscience, UK) and normalised against 18S levels. Normal/Tumour (N/T) ratios were obtained by dividing the normalised relative densitometric units of the normal mucosa by tumour.

[4] = tested on: PRAP expression in HT29 cells; test: Western blot of PRAP expression in HT29 cells at different butyrate concentrations; format: cell-based, human
Text: Cells or tissues were extracted with RIPA buffer (1×PBS, 1% Nonidet P-40, 0.5% sodium deoxychelate and 0.1% SDS. Protease inhibitors: PMSF, aprotinin, pepstatin A and leupeptin were freshly added to the RIPA buffer at the point of usage). […] The secondary antibody was either HRP-conjugated anti-rabbit IgG (BioRad, Hercules, Calif., 1:10,000) or HRP-conjugated anti-mouse antibody (Santa Cruz Biotechnology, Santa Cruz, Calif., 1:20,000). The proteins were visualized using the SuperSignal® West Dura Extended (Pierce) chemiluminescent substrate and exposed to an autoradiograph film.

[5] = tested on: HeLa cells; test: Cell numbers after transfection (overexpression) in HeLa cells, haemocytometer count after Trypan Blue; format: cell-based, human; details: 72 h after transfection
Procedure: The cDNA fragment was cloned into pcDNA 3.1. All plasmids were sequenced to confirm identity and exclude mutations. The plasmids were transfected into HepG2 and HeLa cells using Lipofectamine (Invitrogen), according to manufacturer's recommendations. Each experiment was performed in quadruplicates and repeated three times. After 72 h, the cells were harvested and counted by a haemocytometer after Trypan Blue staining. Whole cell extracts were prepared for Western blot analysis as described.

[6] = tested on: HeLa cells
Procedure: (§2) Cells were subjected to selection in 1200 μg/ml G418 and the number of colonies scored manually at the end of 3 weeks.

[7] = tested on: HT29 cells; details: HT29 stable clones, MTT, p<0.01
Procedure: as §2
The colorimetric MTT (3-(4,5-dimethylthiazol-2yl)-2,5-diphenyl-tetrazolium bromide; Sigma) assay was used as a surrogate measure of cell number at various time points. The experiment was performed in replicates of six and repeated twice.

Nc1ncn([C@H]2C[C@H](O)[C@@H](CO)O2)c(=O)n1 [DAC, 5-aza-2′ deoxycytidine]
Fold of increase of PRAP expression relative to untreated HT29 [1]: 8.5 fold | PRAPcp-GAPDHcp: crossing point of PRAP normalized by GAPDH [1]: 9.37 | PRAPcp-GAPDHcp: crossing point of PRAP normalized by GAPDH [2]: 13.8

CC(/C=C/C(=O)NO)=C\[C@@H](C)C(=O)c1ccc(N(C)C)cc1 [TSA, trichostatin A]
Fold of increase of PRAP expression relative to untreated HT29 [1]: 8.4 fold | PRAPcp-GAPDHcp: crossing point of PRAP normalized by GAPDH [1]: 9.38 | Fold of increase of PRAP expression relative to untreated HCT116 [2]: 5.2 fold and 5.17 fold | PRAPcp-GAPDHcp: crossing point of PRAP normalized by GAPDH [2]: 11.6

CCCC(=O)[O-].[Na+] [butyrate, sodium butyrate]
PRAP gene expression versus control non-treated cells ([3]; 6 days after treatment): 29 fold | Increase of PRAP gene expression ([3]; within 24 h): 20 fold | Butyrate concentration giving maximal PRAP expression [4]: 2 to 5 mM

Proline-rich acidic protein [PRAP]
Reduction in cell numbers compared to vector-transfected controls [5]: 55% | Size of colonies compared to controls ([6]; 3 weeks selection in 1200 μg/ml G418): reduction in the size | Reduction in the number of colonies ([6]; 3 weeks selection in 1200 μg/ml G418, versus vector): 50% | Rate of cell growth of stably transfected clones versus vector controls [7]: significantly lower rate of cell growth

B1: PRAP/-SP: truncated PRAP without signal peptide, amino acid 21 to 151 (protein)
chain: VPAPKVPIKMQVKHWPSEQDPEKAWGARVVEPPEKDDQLVVLFPVQKPKLLTTEEKPRGQGRGPILPGTKAWMETEDTLGRVLSPEPDHDSLYHPPPEEDQGEERPRLWVMPNHQVLLGPEEDQDHIYHPQ
Reduction in cell numbers compared to vector-transfected controls [5]: did not result in a reduction in cell numbers
